From patent publication US7214519B2, “Screening method for identifying heme independent modulators of soluble guanylyl cyclase (sGC) activity using αβCys105 mutant sGC” (Board of Regents of the University of Texas System, priority 2003, dated 2007)
Substitutions are numbered along the chain they refer to. Values belong to the molecule of their own block, whether it stands above or below them.

Tests used:
αβ^Cys105 mutant sGC = target: T1, αβ^Cys105 mutant sGC (Homo sapiens, UniProt Q02108+Q02153, H105C); assay: Assay of sGC activity ([32P]cGMP formation from GTP), purified αβ^Cys105 mutant enzyme; assay type: biochemical
T1 construct: made in house; host or cells: Sf9 cells (baculovirus)
T1 sequence (Q02153 1-619 H105C): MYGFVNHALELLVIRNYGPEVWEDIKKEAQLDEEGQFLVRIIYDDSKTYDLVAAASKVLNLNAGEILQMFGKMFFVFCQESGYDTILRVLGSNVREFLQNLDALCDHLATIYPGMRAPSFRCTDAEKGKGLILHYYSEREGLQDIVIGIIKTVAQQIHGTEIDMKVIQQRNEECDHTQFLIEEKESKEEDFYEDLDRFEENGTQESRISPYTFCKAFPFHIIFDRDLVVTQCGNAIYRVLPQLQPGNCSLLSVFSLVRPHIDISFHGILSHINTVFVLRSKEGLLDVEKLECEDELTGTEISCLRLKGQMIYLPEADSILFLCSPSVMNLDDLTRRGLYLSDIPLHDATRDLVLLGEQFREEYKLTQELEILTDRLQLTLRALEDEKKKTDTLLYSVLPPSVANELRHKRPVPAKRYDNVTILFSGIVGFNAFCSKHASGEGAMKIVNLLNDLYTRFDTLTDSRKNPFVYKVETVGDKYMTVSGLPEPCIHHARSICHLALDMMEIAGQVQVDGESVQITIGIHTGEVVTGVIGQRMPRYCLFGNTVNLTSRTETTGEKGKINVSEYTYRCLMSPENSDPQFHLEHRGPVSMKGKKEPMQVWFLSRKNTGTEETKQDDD
T1 sequence (Q02108 1-690): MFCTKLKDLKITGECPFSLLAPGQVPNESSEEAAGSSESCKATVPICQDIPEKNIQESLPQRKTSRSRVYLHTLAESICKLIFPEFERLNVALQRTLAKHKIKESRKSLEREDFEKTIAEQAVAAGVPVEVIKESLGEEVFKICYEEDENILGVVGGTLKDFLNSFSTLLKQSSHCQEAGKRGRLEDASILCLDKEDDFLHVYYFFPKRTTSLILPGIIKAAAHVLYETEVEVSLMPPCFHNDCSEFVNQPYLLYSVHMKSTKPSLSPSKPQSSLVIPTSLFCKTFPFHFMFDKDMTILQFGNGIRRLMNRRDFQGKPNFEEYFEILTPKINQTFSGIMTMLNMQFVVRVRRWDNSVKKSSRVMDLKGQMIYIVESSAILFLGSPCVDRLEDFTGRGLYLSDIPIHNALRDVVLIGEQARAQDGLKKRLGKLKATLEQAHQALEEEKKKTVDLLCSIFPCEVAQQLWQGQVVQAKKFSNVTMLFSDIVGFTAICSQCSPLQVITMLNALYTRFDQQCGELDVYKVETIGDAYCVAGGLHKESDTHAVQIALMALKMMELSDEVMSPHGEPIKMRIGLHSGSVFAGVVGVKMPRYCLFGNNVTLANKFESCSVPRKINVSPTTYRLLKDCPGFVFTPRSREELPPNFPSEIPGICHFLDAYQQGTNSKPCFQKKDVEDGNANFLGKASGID
Protocol: (§1) sGC Expression and Purification. […] Purification of sGC was performed as described earlier (26), the disclosure of which is hereby incorporated herein by reference, with the following modifications. Cells were harvested 72 h post infection, resuspended in loading buffer (25 mM triethanolamine, pH 7.5. 10 glycerol, 4 mM MgCl2 and 1 mM phenylmethylsulfonyl fluoride, and 5 μg/ml each of pepstatin A, leupeptin, aprotinin, and chymostatin,) and lysed by sonication. The lysate was subjected to 100,000×g centrifugation for 1 h. The high-speed supernate was loaded on a 60 ml DEAE-Sepharose (Amersham Pharmacia Biotech) column and washed with 60 ml of loading buffer without protease inhibitors. The proteins were eluted with loading buffer containing 250 mM NaCl and the eluate was directly loaded on a 30 ml His-Bind resin (Novagen) column. The column was washed with 60 ml of loading buffer followed by 60 ml of loading buffer with 45 mM imidazole. The enzyme was eluted with 175 mM imidazole and 2 ml fractions were collected. […] The enzyme at this stage was approximately 90–95% pure. To remove imidazole, sGC-containing fractions were diluted 3 fold with 25 mM triethanolamine pH 7.5, loaded on a 2 ml Hi-Trap DEAE-Sepharose column (Amersham Pharmacia Biotech), washed with 10 ml of loading buffer and eluted with 25 mM triethanolamine pH 7.5, 250 mM NaCl, 10 glycerol, 4 mM MgCl2, 0.5 mM EDTA, 0.5 mM EGTA. The enzyme obtained at this stage (95% or greater purity) was used for experiments.
(§2) Assay of sGC Activity. Enzyme activity was assayed by formation of [^32P] cGMP from α[^32P]GTP at 37° C. in a final volume of 100 μl. Incubation medium contained 50 mM triethanolamine-HCl buffer (pH 7.4), 1 mM 3-isobutyl-1-methylxanthine (IBMX), 1 mg/ml BSA. 1 mM cGMP, 3 mM MgCl2, 0.05 mg/ml creatine phosphokinase, 5 mM creatine phosphate, 0.1 mM EGTA. 200 μM GTP (about 10.000 cpm/pmol). The reaction was started by addition of the substrate (GTP) with or without activators. 1 mM DTT, GSH or cysteine were added to the incubation medium before the addition of GTP. Thiol concentration varied in some experiments as indicated. Samples containing 0.2 μg sGC were incubated for 10 or 15 min and the reaction was stopped by addition of 500 μl 150 mM zinc acetate and 500 μl 180 mM sodium carbonate. The pellet of zinc carbonate containing most of the unreacted GTP was removed by centrifugation and the supernatant fractions were loaded onto columns filled with 1 g of neutral alumina. Columns were then eluted with 10 ml 0.1 M Tris-HCl buffer (pH 7.5) and Cherenkov radiation in flow through plus eluate was counted in a LKB liquid scintillation spectrometer. Samples incubated in the absence of sGC were used as a negative control. The concentration of dimethylsulfoxide (DMSO) used as a vehicle for YC-1 was not higher than 0.1 and had no effect on sGC activity as determined previously.

wild type sGC = target: T2, wild type sGC (Homo sapiens, UniProt Q02108+Q02153); assay: Assay of sGC activity ([32P]cGMP formation from GTP), purified wild type enzyme; assay type: biochemical
T2 construct: made in house; host or cells: Sf9 cells (baculovirus)
T2 sequence (Q02153 1-619): T1 sequence (Q02153 1-619 H105C) with C105H
T2 sequence (Q02108 1-690): T1 sequence (Q02108 1-690)
Protocol: as §1, §2

[1] = 2 μM BAY-41-2272, data not shown

SMILES: OCc1ccc(-c2nn(Cc3ccccc3)c3ccccc23)o1 [YC-1, 3-(5′-Hydroxymethyl-2′furyl)-1-benzyl-indazole, reference compound]
- increase of activity with YC-1 activation (αβ^Cys105 mutant sGC; 100 μM YC-1, DTT-free conditions): 30
- extent of activation by YC-1 after heme reconstitution (αβ^Cys105 mutant sGC; 100 μM YC-1, DTT-treated heme-reconstituted enzyme): did not change the extent of activation
- fold activation by YC-1 (αβ^Cys105 mutant sGC; 100 μM YC-1, in the presence of DTT): up to 3 fold
- fold stimulation by YC-1 (wild type sGC; 100 μM YC-1): 11 fold
- specific activity with YC-1 (wild type sGC; 100 μM YC-1): 0.15 µmol/min/mg

SMILES: C=CC1=C(C)c2cc3[nH]c(cc4nc(cc5[nH]c(cc1n2)c(C)c5CCC(=O)O)C(CCC(=O)O)=C4C)c(C)c3C=C [PPIX, protoporphyrin IX, reference compound]
- stimulation of basal activity by PPIX (αβ^Cys105 mutant sGC; 1 μM PPIX, absence of DTT): 80

SMILES: O[C@@H](CS)[C@@H](O)CS [DTT, reference compound]
- concentration at which inhibitory effect is prominent (αβ^Cys105 mutant sGC; concentration-response, FIG. 1B): higher than 1 mM
- fold decrease in enzymatic activity (αβ^Cys105 mutant sGC; millimolar concentrations of DTT): 5–7 fold
- change of activity without DTT (wild type sGC; 1 mM DTT vs no thiols): did not change significantly

SMILES: Nc1nc(-c2nn(Cc3ccccc3F)c3ncccc23)ncc1C1CC1 [BAY-41-2272, 5-cyclopropyl-2-[1-(2-fluoro-benzyl)-1H-pyrazolo[3,4-b]pyridin-3-yl]-pyrimidin-4-ylamine, reference compound]
- effect compared with 100 μM YC-1 (αβ^Cys105 mutant sGC; [1]): Identical effects
- effect compared with 100 μM YC-1 (wild type sGC; [1]): Identical effects

Next, values leading:

- specific activity in the presence of GSH (αβ^Cys105 mutant sGC; GSH as reducing agent, no DTT): up to 2 μmol/min/mg
- effect of GSH on activity (αβ^Cys105 mutant sGC; GSH concentration above 1 mM): slight stimulatory effect
SMILES: N[C@@H](CCC(=O)N[C@@H](CS)C(=O)NCC(=O)O)C(=O)O [GSH, glutathione, reference compound]

- sensitivity to cystamine in the presence of DTT (αβ^Cys105 mutant sGC; 1 mM cystamine, 1 mM DTT): less sensitive
- effect of cystamine on activity in the presence of DTT (wild type sGC; 1 mM cystamine, 1 mM DTT): reversed
- effect of cystamine on activity (wild type sGC; 1 mM cystamine, no DTT): inhibited
SMILES: NCCSSCCN [cystamine, reference compound]

- activity with arachidonic acid (αβ^Cys105 mutant sGC; 1 mM arachidonic acid, in the presence of DTT): 0.5 µmol/min/mg
- fold stimulation by arachidonic acid (αβ^Cys105 mutant sGC; 1 mM, in the presence of DTT): 3.5 fold
- stimulation by arachidonic acid (αβ^Cys105 mutant sGC; absence of DTT): only modestly stimulated
- maximum fold activation by arachidonic acid (wild type sGC; not affected by DTT, data not shown): 3 fold
SMILES: CCCCC/C=C\C/C=C\C/C=C\C/C=C\CCCC(=O)O [arachidonic acid, reference compound]
